Tested on: supercoiled pT75
Experiment: Transcript elongation rate in 3 rNTP + 1 dNTP reactions
Format: biochemical
Method: Elongation rate determinations were carried out as described (Golomb and Chamberlin, 1974) with some variations (Bonner, et al., 1994).
Elongation rates of Y639F in reactions containing a single dNTP: Elongation rates for Y639F in reactions with 4 rNTPs or 1 dNTP and 3 rNTPs were determined by analyzing aliquots, taken at 10 second intervals, from transcription reactions initiated on supercoiled PT75 by adding NTPs to otherwise complete reaction mixes (FIG. 6).
The template was supercoiled pT75 at 5×10^-7 M. Y639F polymerase was used at a concentration of 10^-6 M. Reactions contained the indicated NTPs. Labeling was with α-P32-rATP (lane e) or α-P32-rGTP (other lanes). After initiation of the reactions aliquots were taken at 10 second intervals and analyzed on 1% agarose denaturing-formaldehyde gels. […] The bars indicate the positions of λ DNA markers.
When analyzed on denaturing agarose gels (FIG. 6) the heterogeneously sized transcripts from these reactions are resolved as a smear with the trailing edge of the smear corresponding to transcripts initiated at t=0 and from which the maximal transcript elongation rate can be determined (Golomb and Chamberlin, 1974; Bonner, et al., 1994). The following elongation rate reductions (relative to a ‘4 rNTP’ reaction) were obtained for reactions containing a 3 rNTPS and 1 dNTP:dATP, ˜3-fold; dUTP, ˜2-fold; dGTP ˜1.5-fold; dCTP, 1-1.5-fold. Because of its poor activity in reactions with dNTPs it was difficult to determine the corresponding elongation rate reductions for the W.T. enzyme.

**Q.** What does the source list for “Y639F: T7 RNAP with wild-type tyrosine at position 639 substituted by phenylalanine”?
**A.** Elongation rate reduction relative to 4 rNTP reaction (3 rNTPs and dATP): ~3 fold; Elongation rate reduction relative to 4 rNTP reaction (3 rNTPs and dCTP): 1-1.5 fold; Elongation rate reduction relative to 4 rNTP reaction (3 rNTPs and dGTP): ~1.5 fold; Elongation rate reduction relative to 4 rNTP reaction (3 rNTPs and dUTP): ~2 fold

Reference: patent US20050069907A1, “Methods for using double-mutant RNA polymerases with reduced discrimination between non-canonical and canonical nucleoside triphosphates” (priority 2002, published 2005)
